Type in all cases: cell-based
Test [1] deals with Haemophilus influenzae ATCC10211. The experiment in a line: MIC, microbroth dilution (NCCLS). As to conditions: rifS strain, BHI Broth with NAD and hematin, 37° C., read-out: Antimicrobial activity (MIC).
Test [2] relates to Staphylococcus epidermidis ATCC12228. As to the kind of experiment: MIC, microbroth dilution (NCCLS). The conditions noted are these: rifS strain, Cation-Adjusted Mueller-Hinton Broth, 37° C., read-out: Antimicrobial activity (MIC).
Test [3] deals with Escherichia coli ATCC25922. As to the kind of experiment: MIC, microbroth dilution (NCCLS). The conditions noted are these: rifS strain, Cation-Adjusted Mueller-Hinton Broth, 37° C., read-out: Antimicrobial activity (MIC). For orientation: Broth dilution looks for growth in wells or tubes with falling amounts of substance.
Test [4] concerns Mycobacterium smegmatis ATCC700084. The experiment in a line: MIC, microbroth dilution (NCCLS). As to conditions: Mycolicibacterium smegmatis, rifS strain, Middlebrook Broth plus ADC Enrichment, 37° C., read-out: Antimicrobial activity (MIC).
Test [5] relates to Streptococcus pyogenes ATCC19615. As to the kind of experiment: MIC, microbroth dilution (NCCLS). As to conditions: rifS strain, THY Broth, 37° C., read-out: Antimicrobial activity (MIC).
In test [6] the test system is Staphylococcus aureus ATCC29213 rpoB^D417Y. As to the kind of experiment: microbe, parasite or virus in culture. The essentials: (§1)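 MICs by NCCLS broth microdilution, incubation at 37 °C, in cation-adjusted Mueller-Hinton broth. Strains: rifampin-resistant S. aureus ATCC 29213 with rpoB D417Y or H418Y, and quinolone-resistant EN1252a carrying gyrA S84L plus grlA S80F.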

Test [7] concerns Staphylococcus aureus EN1252a gyrA^S84L grlA^S80F. As to the kind of experiment: microbe, parasite or virus in culture. As to conditions: read-out: Antimicrobial activity (MIC). The essentials: as §1
The test system of test [8] is Staphylococcus aureus ATCC29213 rpoB^H418Y. The experiment in a line: microbe, parasite or virus in culture. The essentials: as §1
For test [9], the system named is Enterococcus faecalis ATCC29212. As to the kind of experiment: MIC, microbroth dilution (NCCLS). As to conditions: rifS strain, BHI Broth, 37° C., read-out: Antimicrobial activity (MIC).
In test [10] the test system is Staphylococcus aureus ATCC29213. As to the kind of experiment: MIC, microbroth dilution (NCCLS). As to conditions: rifS strain, Cation-Adjusted Mueller-Hinton Broth, 37° C., read-out: Antimicrobial activity (MIC).
Test [11] deals with Streptococcus pneumoniae ATCC6303. The experiment in a line: MIC, microbroth dilution (NCCLS). The conditions noted are these: rifS strain, THY Broth with 1 mg/mL catalase, 5% CO2, 37° C., read-out: Antimicrobial activity (MIC).
Test [12] has as its system H. influenzae ATCC 10211 and E. coli ATCC 25922. The experiment in a line: MIC, Gram-negative bacteria (panel). As to conditions: across two Gram-negative strains. The method, then: (§2) Representative compounds were assayed for antimicrobial activity as follows: Minimum Inhibitory Concentrations (“MICs”) were determined by the microbroth dilution method as per NCCLS guidelines (National Committee for Clinical Laboratory Standards. 2000. Methods for dilution antimicrobial susceptibility tests for bacteria that grow aerobically, 5th ed. M7-A5. National Committee for Clinical Laboratory Standards, Wayne, Pa.), except that all growth incubations were conducted at 37° C. Bacterial cultures were tested in the following bacteriological media: S. aureus, S. epidermidis, and E. coli in Cation-Adjusted Mueller-Hinton Broth, S. pneumoniae in THY Broth supplemented with 1 mg/mL catalase under 5% CO2 atmosphere, S. pyogenes in THY Broth, E. faecalis in BHI Broth, H. influenzae in BHI Broth supplemented with 0.75 μL of 1 mg/mL NAD and 150 μL of 1 mg/ml hematin per 5 mL, and M. smegmatis in Middlebrook Broth plus ADC Enrichment.
(§3) S. aureus ATCC […], S. epidermidis ATCC 12228, S. pneumoniae ATCC6303, S. pyogenes ATCC 19615 and E. faecalis ATCC 29212 are rifampin-susceptible Gram-positive strains. […] H. influenzae ATCC 10211 and E. coli ATCC 25922 are Gram-negative bacteria.

Test [13] is described as follows: MIC, rifampin-susceptible Gram-positive strains (panel). As to conditions: across five rifampin-susceptible Gram-positive strains. The procedure:
as §2, §3

[14] abbreviates: ATCC29213, read-out: Antimicrobial activity (MIC).

Values after ≈ are worked out from the molar mass of the structure shown. Where two headings read alike, the source gives them in different places.

As for `COc1c(N2CCN(C(=O)C3CCN(C4=C5NC(=O)/C(C)=C\C=C\[C@H](C)[C@H](O)[C@@H](C)[C@@H](O)[C@@H](C)[C@H](OC(C)=O)[C@H](C)[C@@H](OC)/C=C/O[C@@]6(C)Oc7c(C)c(O)c(c(c7C6=O)C4=O)C5=O)CC3)CC2)c(F)cc2c(=O)c(C(=O)O)cn(C3CC3)c12` [Example 51, 3-{4-[4-(3-Carboxy-1-cyclopropyl-6-fluoro-8-methoxy-4-oxo-1,4-dihydroquinolin-7-yl)-piperazin-1-ylcarbonyl]-piperidin-1-yl}rifamycin S], the MIC in test [1] was in the range of 0.125 to 2 µg/mL (≈ 0.107 to 1.71 µM); in test [2], 0.008 to 0.063 µg/mL (≈ 0.00686 to 0.054 µM); in test [3], 0.125 to 8 µg/mL (≈ 0.107 to 6.86 µM); in test [4], 0.5 to 64 µg/mL; in test [5] it was 0.008 to 0.063 µg/mL (≈ 0.00686 to 0.054 µM); in test [6] (setting [14]), 0.06 to 32 µg/mL (≈ 0.0514 to 27.4 µM). Also, the MIC in test [7] was in the range of 0.004 to 0.5 µg/mL (≈ 0.00343 to 0.429 µM); in test [8] (setting [14]), 0.06 to 16 µg/mL (≈ 0.0514 to 13.7 µM); in [9], 2 to 32 µg/mL (≈ 1.71 to 27.4 µM); in [10], 0.004 to 0.5 µg/mL (≈ 0.00343 to 0.429 µM); in test [11], 0.008 to 0.125 µg/mL (≈ 0.00686 to 0.107 µM).

With `COc1c(N2CC(NC(=O)C3CCN(C4=C5NC(=O)/C(C)=C\C=C\[C@H](C)[C@H](O)[C@@H](C)[C@@H](O)[C@@H](C)[C@H](OC(C)=O)[C@H](C)[C@@H](OC)/C=C/O[C@@]6(C)Oc7c(C)c(O)c(c(c7C6=O)C4=O)C5=O)CC3)C2)c(F)cc2c(=O)c(C(=O)O)cn(C3CC3)c12` [Example 53, 3-{4-[1-(3-Carboxy-1-cyclopropyl-6-fluoro-8-methoxy-4-oxo-1,4-dihydroquinolin-7-yl)-azetidin-3-ylcarbamoyl]-piperidin-1-yl}rifamycin S], the MIC in [1] was in the range of 0.125 to 2 µg/mL (≈ 0.108 to 1.74 µM); in test [2], 0.008 to 0.063 µg/mL (≈ 0.00694 to 0.0547 µM); in test [3] it was 0.125 to 8 µg/mL (≈ 0.108 to 6.94 µM); in [4] it was 0.5 to 64 µg/mL; in test [5], 0.008 to 0.063 µg/mL (≈ 0.00694 to 0.0547 µM); in [6] (setting [14]), 0.06 to 32 µg/mL (≈ 0.0521 to 27.8 µM). Besides, the MIC was 0.004 to 0.5 µg/mL (≈ 0.00347 to 0.434 µM) in test [7]; 0.06 to 16 µg/mL (≈ 0.0521 to 13.9 µM) in test [8] (setting [14]); 2 to 32 µg/mL (≈ 1.74 to 27.8 µM) in test [9]; 0.004 to 0.5 µg/mL (≈ 0.00347 to 0.434 µM) in [10]; 0.008 to 0.125 µg/mL (≈ 0.00694 to 0.108 µM) in [11].

As to `CO[C@H]1/C=C/O[C@@]2(C)Oc3c(C)c(O)c4c(c3C2=O)C(=O)C(N2CCN(c3nc5c(cc3F)c(=O)c(C(=O)O)cn5C3CC3)CC2)=C(NC(=O)/C(C)=C\C=C\[C@H](C)[C@H](O)[C@@H](C)[C@@H](O)[C@@H](C)[C@H](OC(C)=O)[C@@H]1C)C4=O` [Example 55, 3-[1-(3-Carboxy-1-cyclopropyl-6-fluoro-4-oxo-1,4-dihydro-[1,8]naphthyridine-7-yl)-piperazin-4-yl]-rifamycin S], the MIC fell in the range of 0.125 to 2 µg/mL (≈ 0.122 to 1.95 µM) in test [1]; 0.008 to 0.063 µg/mL (≈ 0.0078 to 0.0614 µM) in test [2]; 0.125 to 8 µg/mL (≈ 0.122 to 7.8 µM) in test [3]; 0.5 to 64 µg/mL in test [4]; 0.008 to 0.063 µg/mL (≈ 0.0078 to 0.0614 µM) in test [5]; 0.06 to 32 µg/mL (≈ 0.0585 to 31.2 µM) in [6] (setting [14]). Moreover, the MIC is 0.004 to 0.5 µg/mL (≈ 0.0039 to 0.487 µM) in test [7]; 0.06 to 16 µg/mL (≈ 0.0585 to 15.6 µM) in test [8] (setting [14]); 2 to 32 µg/mL (≈ 1.95 to 31.2 µM) in test [9]; 0.004 to 0.5 µg/mL (≈ 0.0039 to 0.487 µM) in test [10]; 0.008 to 0.125 µg/mL (≈ 0.0078 to 0.122 µM) in test [11].

For `CO[C@H]1/C=C/O[C@@]2(C)Oc3c(C)c(O)c4c(c3C2=O)C(=O)C(N2CCCC3(CCN(c5nc6c(cc5F)c(=O)c(C(=O)O)cn6-c5ccc(F)cc5F)C3)C2)=C(NC(=O)/C(C)=C\C=C\[C@H](C)[C@H](O)[C@@H](C)[C@@H](O)[C@@H](C)[C@H](OC(C)=O)[C@@H]1C)C4=O` (some centres unmarked) [Example 60], the MIC lay in the range of 0.125 to 2 µg/mL (≈ 0.108 to 1.74 µM) in test [1]; 0.008 to 0.063 µg/mL (≈ 0.00694 to 0.0547 µM) in test [2]; 0.125 to 8 µg/mL (≈ 0.108 to 6.94 µM) in test [3]; 0.5 to 64 µg/mL in test [4]; 0.008 to 0.063 µg/mL (≈ 0.00694 to 0.0547 µM) in [5]; 0.06 to 32 µg/mL (≈ 0.0521 to 27.8 µM) in test [6] (setting [14]). Also, the MIC was in the range of 0.004 to 0.5 µg/mL (≈ 0.00347 to 0.434 µM) in test [7]; 0.06 to 16 µg/mL (≈ 0.0521 to 13.9 µM) in test [8] (setting [14]); 2 to 32 µg/mL (≈ 1.74 to 27.8 µM) in test [9]; 0.004 to 0.5 µg/mL (≈ 0.00347 to 0.434 µM) in [10]; 0.008 to 0.125 µg/mL (≈ 0.00694 to 0.108 µM) in test [11].

In the case of `CO[C@H]1/C=C/O[C@@]2(C)Oc3c(C)c(O)c4c(O)c(c(/C=N/N5CCN(C)CC5)c(O)c4c3C2=O)NC(=O)/C(C)=C\C=C\[C@H](C)[C@H](O)[C@@H](C)[C@@H](O)[C@@H](C)[C@H](OC(C)=O)[C@@H]1C` [rifampin, reference compound], the MIC in test [1] was 0.24 µg/mL (≈ 0.292 µM); in test [2], 0.03 µg/mL (≈ 0.0365 µM); in test [3], 16 µg/mL (≈ 19.4 µM); in [4], 64 µg/mL; in test [12], 0.24 to 16 µg/mL (≈ 0.292 to 19.4 µM); in [5], 0.013 µg/mL (≈ 0.0158 µM). For the same compound, the MIC in test [6] (ATCC29213) is more than 64 µg/mL; in test [6] (setting [14]), more than 64 µg/mL; in test [7], 0.004 µg/mL (≈ 0.00486 µM); in test [8] (ATCC29213) it was 8 µg/mL (≈ 9.72 µM); in test [8] (setting [14]), 8 µg/mL (≈ 9.72 µM); in test [9], 1 µg/mL (≈ 1.22 µM). Besides, the MIC in test [10] is 0.008 µg/mL (≈ 0.00972 µM); in test [13] it was 0.008 to 1 µg/mL (≈ 0.00972 to 1.22 µM); in [11], 0.061 µg/mL (≈ 0.0741 µM).

For the origin of these results see patent US7247634B2, “Rifamycin derivatives effective against drug-resistant microbes” (Cumbre Pharmaceuticals Inc., priority 2004, dated 2007).
